Entries after “also recorded” stand apart in the source; their conditions may differ.

The nature of data set [1]: Efficacy on DSS induced ulcerative colitis (disease activity index). In kind it is in vivo, mice. As for the experimental part: In order to establish an ulcerative colitis model, 2.5% DSS powder was mixed with drinking water and provided ad libitum. The DSS powder-containing drinking water was supplied for 5 to 6 days of disease induction period, and after that, normal drinking water was supplied.
The administered compounds of Table 21 were administered orally once daily. Hematochezia, diarrhea and body weight loss were scored according to the criteria shown in the following Table 22, and the scores were summed to calculate a disease activity index (DAI), which is shown in FIG. 4.
Efficacy of Compound (4) on ulcerative colitis was verified in the same manner as in Experimental Example 10-1, except that Compound (4) was used instead of Compound (1), and DSS was administered until day 5, and the drug was administered from day 6.

A further data set can be described thus: in vivo. The method, then:
Specifically, the experimental animals were twelve six-week-old C57BL/6 male mice. The experimental animals were housed in polycarbonate cages in groups of four, and had free access to food and water. The animal housing room was maintained at a temperature of 20±1°C and humidity of about 50±5%, with a constant 12-hour light/dark cycle. The experimental animals were acclimated to the animal room environment for one week, and then randomly divided into three groups of four animals each based on body weight.

In the next data set the test system is IL-6 (Interleukin-6). In words: Inhibition of inflammatory cytokine secretion in LPS-treated immune cells (IL-6 sandwich ELISA). In kind it is cell-based. The note with it: Mus musculus, RAW264.7, Raw 264.7, LPS 500 ng/mL, 24 hours, read-out: IL-6 Reduction Activity (%) (Mean±SD). The method, then:
Raw 264.7 cell line was seeded in a 48-well plate at a density of 8×10^4 cells/well, and cultured at 37°C in a DMEM medium including 10% FBS, 100 U/mL of penicillin and 100 µg/mL of streptomycin.
The medium was cultured overnight, and then replaced with a fresh medium including 10 µM of the pharmaceutical composition sensitive to nitrogen monoxide including the compound of each of Examples 1 and 11 to 13 and 500 ng/mL of LPS, and the fresh medium was cultured again for another 24 hours.
Lastly, the supernatant was collected, and then the level of IL-6 (Interleukin-6) expression was analyzed using a Sandwich enzyme-linked immunosorbent assay (ELISA). Specifically, a standard solution and 50 µL of the diluted supernatant were introduced to each well of a well plate coated with an antibody specific to IL-6, and after binding IL-6 to the immobilized antibody, the well was washed with a washing buffer, followed by a reaction with HRP as a secondary antibody for 30 minutes at room temperature. The well was washed three times with a washing buffer, then color was developed using TMB (3,3', 5,5'-tetramethyl benzidine) as a substrate, and the reaction was stopped using 1 M sulfuric acid to measure the degree of color development at an absorbance of 450 nm.

A further data set has as its system splenocytes. Description: NO scavenging activity in Concanavalin A-treated splenocytes (Griess assay). In kind it is cell-based, C57BL/6 mouse. The conditions noted are these: Mus musculus, Splenocyte, Concanavalin A 5 µg/mL, 72 hours, read-out: NO Scavenging Activity (%) (Mean±SD). In short, it runs like this: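 Splenocytes from 8-week-old C57BL/6 mice at 5×10^6 cells/mL in RPMI 1640/10% FBS, stimulated with Concanavalin A (5 µg/mL) plus […] test composition added at plating. After 72 h culture, remaining NO in supernatant measured by Griess assay.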

Another data set relates to IFN-γ. Description: IFN-γ reduction activity in Concanavalin A-treated splenocytes (quantitative ELISA). In kind it is cell-based, C57BL/6 mouse. The conditions noted are these: Mus musculus, Splenocyte, Concanavalin A 5 µg/mL, 72 hours, read-out: IFN-γ Reduction Activity (%) (Mean±SD). In short, it runs like this: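 Splenocytes from 8-week-old C57BL/6 mice at 5×10^6 cells/mL in RPMI 1640 with 10% FBS, stimulated with Concanavalin A (5 µg/mL) plus compound added concentration-dependently. Supernatant IFN-γ measured by quantitative ELISA after 72 h.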

For the compound `C[C@@H]1CCN(C(=O)CC#N)C[C@@H]1N(C)c1ncnc2c1ccn2C(=O)Nc1ccccc1N` [Example 1, N-(2-aminophenyl)-4-(((3R,4R)-1-(2-cyanoacetyl)-4-methylpiperidin-3-yl) (methyl)amino)-7H-pyrrolo[2,3-d]pyrimidine-7-carboxamide], in data set [1] (25 mg/kg oral once daily from day 3, day 7 of the test, p<0.01, FIG. 4), the “efficacy on disease activity index (DAI)” value is listed as “statistically significant efficacy was observed”. For the same compound, the “efficacy in alleviating ulcerative colitis compared to tofacitinib” value in data set [1] (25 mg/kg oral once daily, FIGS. 4 and 5) is recorded as “comparable to that of tofacitinib on average; also recorded: comparable or more superior efficacy”. The compound also showed an MTD at 4 days in “in vivo” (male, mouse, in vivo, po) of 1600 mg/kg. Moreover, the mortality entry in the data set “in vivo” (mice, oral once daily, 200, 400, 800, 1,600 mg/kg escalated daily) is listed as “no mortality was observed”. Moreover, the activity at 10 µM in the data set with IL-6 (Interleukin-6) is 93.6 ± 0.6%; in the data set on splenocytes, 98.1 ± 0.09%; in the data set with IFN-γ it was 91.5 ± 1.37%.

These data come from patent EP4741395A1, “NOVEL COMPOUND SENSITIVE TO NITROGEN MONOXIDE AND PHARMACEUTICAL COMPOSITION COMPRISING SAME” (Omniamed Co. Ltd, priority 2023, dated 2025).
